Results reported in US10308911B2, “Methods for generating the inner ear and other cranial placode-derived tissues using pluripotent stem cells” (Indiana University Research & Technology Corporation, priority 2012, dated 2019).
“Also recorded” adds a separate entry of the source.

Columns and labels:
Type in all cases: cell-based, mouse
[1] = system: ESC aggregates; experiment: Otic placode and otic vesicle induction (Pax2/Pax8/Ecad expression, vesicle counts)
Description: On day 8 of differentiation, cell aggregates are transferred to 24 well plates (Lipidure Coat, NOF; 4-8 aggregates per well) in N2 Medium containing 1% MATRIGEL™ (a gelatinous protein mixture secreted by Engelbreth-Holm-Swarm (EHS) mouse sarcoma cells) (v/v). N2 Medium contains Advanced DMEM/F12, 1×N2 Supplement, 1 mM Penicillin/Streptomycin or 50 μg/mL Normocin (Invivogen) and 1 mM GlutaMax.
(§1) The following small molecules and recombinant proteins were used: recombinant human BMP4 (10 ng/mL; Stemgent), human FGF2 (25 ng/mL; Peprotech), XAV939 (1 μM; Santa Cruz), SU5402 (10 μM; BioVision), SB-431542 (1 μM; Tocris Bioscience), and LDN-193189 (100 nM; Stemgent).
(§2) RNA was isolated using the RNeasy Minikit (Qiagen) and treated with TURBO DNase (Ambion). Single-stranded cDNA was synthesized using Omniscript reverse transcriptase (Qiagen) and Oligo-dT primers. All amplicons had standardized sizes of 100-110 bps. cDNA samples were amplified on an ABI PRISM 7900HT Sequence Detection System (Applied Biosystems) using the SYBR Green PCR Master Mix (Applied Biosystems). For each PCR reaction, a mixture containing cDNA template (5 ng), Master Mix, and forward and reverse primers (400 nM each) was treated with uracil N-glycosylase at 50° C. for 2 min before undergoing the following program: 1 cycles, 95° C., 10 min; 45 cycles, 95° C., 15 sec, 60° C., 1 min; 1 cycles, 95° C., 15 sec, 60° C., 15 sec, 95° C., 15 sec; 72° C., hold. Melting curve analysis was performed to confirm the authenticity of the PCR product. The mRNA level for each gene was calculated relative to L27 mRNA expression.
The percentage of epithelial cells expressing Pax8/Ecad was established by analyzing serial sections of day 6 and 8 aggregates. Data are representative of 6-8 aggregates from at least 3 separate experiments. For analysis of each aggregate, 5 cryosections were chosen at random positions along the z-axis of the aggregate. Using Nikon Elements or NIH ImageJ software, the Ecad^+ outer-epithelium was outlined and cell counting of DAPI and Pax8^+ nuclei along the length of the epithelium established a percentage for each cryosection.
Similarly, the number of Myo7a^+ hair cells in each day 20 aggregate was determined by analyzing 10 μm serial cryosections. Each biological sample represents the average number of hair cells counted in 4-6 cell aggregates and data are representative of the average from 3 separate experiments (15 aggregates total for each condition). Odd and even numbered cryosections were analyzed separately and averaged to avoid double counting. The number of vesicles was quantified similarly, but every third section was analyzed to avoid double counting and allow for analysis of three separate staining combinations. Vesicles with a long axis diameter larger than 30 μm were accounted for to avoid double counting.

[2] = system: ESC aggregates; experiment: Pre-placodal ectoderm induction in BMP/SB aggregates (marker expression, epithelial thickness)
Description: On day 4-5, the differentiation medium is replaced with differentiation medium containing FGF2 in a final concentration range of about 5 ng/ml to about 100 ng/ml (with a preferred final concentration of about 25 ng/mL) or another FGF selected from FGF 1-FGF23), and a BMP inhibitor. In some embodiments, the BMP inhibitor is LDN-193189 (CAS No. 1062368-24-4 at about 100 nM). Alternatively, DMH1 (CAS No. 1206711-16-1) or Dorsomorphin (CAS No. […]) can be used as the BMP inhibitor were added to each well at 6× concentration in 25 μL of fresh media. The extracellular matrix protein concentration (e.g., MATRIGEL™ (a gelatinous protein mixture secreted by Engelbreth-Holm-Swarm (EHS) mouse sarcoma cells) at 2% (v/v)) is maintained throughout days 1-8. Culture of the non-neural ectoderm cells under these conditions yields preplacodal ectoderm, epithelium characterized by expression of at least one of Dlx3, Dlx5, Pax2, Pax8 and Eya1. The concentration of MATRIGEL™ (a gelatinous protein mixture secreted by Engelbreth-Holm-Swarm (EHS) mouse sarcoma cells) or another extracellular matrix protein, as mentioned herein, is maintained at 2% (v/v) throughout days 1-8.
as §1, §2
Aggregates were fixed with 4% paraformaldehyde. […]
The apparent thickness of epithelia was determined by analyzing cryosections stained with Ncad (Control) or Ecad antibodies (all other conditions) on days 3-6. […] For each aggregate, 3 serial sections were analyzed. Five points along the epithelium were randomly chosen and the thickness was measured using Nikon Elements image analysis tools.

[3] = system: ESC aggregates; experiment: Non-neural ectoderm induction in SFEBq 3D culture (qPCR, immunostaining)
Description: In an exemplary embodiment using mES cells, during days 0-3, serum-free floating culture of embryoid body-like aggregate with quick reaggregation (SFEBq) to generate EBs is initiated by dissociation of adherent mES cells into a cell suspension by trypsinization (e.g., with 0.25% Trypsin-EDTA, and resuspended in “Differentiation Medium”. Differentiation Medium is composed of Glasgow Minimal Essential Medium (G-MEM) supplemented with 1.5% knockout serum replacement (KSR; Invitrogen), 0.1 mM non-essential amino acids, 1 mM sodium pyruvate, 1 mM Penicillin/Streptomycin and 1 mM 2-mercaptoethanol. Cells are then plated in 100 μl/well in a range of about 1,000-15,000 cells, but preferably about 3000 cells, a in 96-well low cell adhesion U-bottom plates. On day 1, half of the medium in each well is exchanged for fresh Differentiation Medium containing an extracellular matrix protein, e.g., MATRIGEL™ (a gelatinous protein mixture secreted by Engelbreth-Holm-Swarm (EHS) mouse sarcoma cells) (2% v/v final concentration), laminin (50-400 μg/ml), or laminin plus entactin (50-400 μg/ml each).
On day 3 after initiating formation of EBs, a BMP, e.g., BMP2, BMP4, or BMP7 and a TGFβ inhibitor are added to the culture medium. The concentration of BMP, e.g., BMP4, to be used in the method can range from at least about 1 ng/ml to about 50 ng/ml, e.g., about 2 ng/ml, 4 ng/ml, 5 ng/ml, 7 ng/ml, 12 ng/ml, 15 ng/ml, 20 ng/ml, 25 ng/ml, 32 ng/ml, 40 ng/ml, or another concentration of a BMP from at least about 1 ng/ml to about 50 ng/ml. In some embodiments, the BMP to be used is BMP4 at a concentration of about 10 ng/ml. BMP 4. In some embodiments, the TGFβ inhibitor to be used is SB 431542 (CAS No. 301836-41-9, at a final concentration of about 1 μM). Alternatively, any of the following TGFβ inhibitors may be used: A 83-01 (CAS No. 909910-43-6), GW 788388 (CAS No. 452342-67-5), LY 364947 (CAS No. 396129-53-6), RepSox (CAS No. 446859-33-2), SB 505124 (CAS No. 694433-59-5), SB 525334 (CAS No. 356559-20-1), or SD 208 (CAS No. […]) at a concentration of about 0.1 μM to about 5 μM.
as §1
RNA was isolated using the RNeasy Minikit (Qiagen) and treated with TURBO DNase (Ambion). Single-stranded cDNA was synthesized using Omniscript reverse transcriptase (Qiagen) and Oligo-dT primers. […] The mRNA level for each gene was calculated relative to L27 mRNA expression. […]

[4] = qPCR of day 5 samples, 10 ng/mL BMP vs vehicle control

Cc1c[nH]c(-c2cnc(NCCNc3ccc(C#N)cn3)nc2-c2ccc(Cl)cc2Cl)n1 [CHIR99021]
abundance of Pax2/Ecad+ vesicles with a luminal diameter greater than 50 μm (large vesicles) ([1]; CHIR99021 3 μM days 8-10, read on day 12): higher abundance

c1ccc2c(-c3cnn4cc(-c5ccc(N6CCNCC6)cc5)cnc34)ccnc2c1 [LDN, LDN-193189]
Sox1 expression after LDN treatment ([2]; BMP/SB aggregates): does not induce
Dlx3 expression in BMP/SB aggregates after BMP inhibition ([2]; LDN treatment on day 4.5): maintained expression of Dlx3
Dlx3 expression after LDN treatment ([2]; treatment on or before day 4): suppresses

Oc1nc(-c2ccc(C(F)(F)F)cc2)nc2c1CSCC2 [XAV939]
number of prosensory vesicles ([1]; XAV939 (1 μM) from day 8-10, vesicles counted on day 12): significantly decreased; also recorded: decreases
prevalence of Pax2+ vesicles ([1]; XAV939 from day 8-10): reduced
generation of otic vesicles following BMP/SB-FGF/LDN treatment ([1]; XAV939 on days 8-10): blocked

FGF: recombinant human FGF2 (25 ng/mL; Peprotech)
Pax8 expression versus FGF dosage ([1]; qPCR, n=4, 25, 50 and 100 ng/mL not significantly different): dependent on FGF dosage

Cc1c[nH]c(/C=C2\C(=O)Nc3ccccc32)c1CCC(=O)O [SU5402]
epithelial thickening ([2]; SU5402 (10 μM) following BMP/SB-LDN treatment): abolishes epithelial thickening

NC(=O)c1ccc(-c2nc(-c3ccc4c(c3)OCO4)c(-c3ccccn3)[nH]2)cc1 [SB, SB-431542]
level of brachyury expression induced by BMP ([3]; SB added to BMP, n=3): decreases

B1: BMP4: recombinant human BMP4 (bone morphogenetic protein), 10 ng/mL; Stemgent (protein, UniProt P12644 293-408, looked up)
Bone morphogenetic protein 4: SPKHHSQRARKKNKNCRRHSLYVDFSDVGWNDWIVAPPGYQAFYCHGDCPFPLADHLNSTNHAIVQTLVNSVNSSIPKACCVPTELSAISMLYLDEYDKVVLKNYQEMVVEGCGCR
brachyury+ cells in aggregates ([3]; day 5, BMP-treated aggregates): 60.8±3.9%
neuroectoderm marker Sox1 expression [3, 4]: downregulated
non-neural ectoderm marker Dlx3 expression [3, 4]: upregulated
